Results as given in PMC2833169, “Anti-malarial activity of a non-piperidine library of next-generation quinoline methanols” (Malaria Journal, 2010).
pIC50: −log10 of the molar value. Values after ≈ are worked out from the molar mass of the structure shown. Where two headings read alike, the source gives them in different places.

What was measured:
P. falciparum strain W2 = test: labeled hypoxanthine susceptibility assay, P. falciparum W2; format: cell-based, Plasmodium falciparum; details: Plasmodium falciparum
Procedure: (§1) The in vitro activities of quinoline methanols against P. falciparum strains W2, D6, TM91C235, and TM90C2A were evaluated using the traditional labeled hypoxanthine assay of Desjardins et al as modified by Milhous et al. These four P. falciparum strains were selected since they have various levels of resistance to conventional anti-malarials.

P. falciparum strain D6 = test: labeled hypoxanthine susceptibility assay, P. falciparum D6; format: cell-based, Plasmodium falciparum; details: Plasmodium falciparum
Procedure: as §1

[1] = tested on: P. falciparum strain TM91C235; test: labeled hypoxanthine susceptibility assay, P. falciparum TM91C235; format: cell-based, Plasmodium falciparum; details: Plasmodium falciparum
Procedure: as §1

[2] = tested on: P. falciparum strain TM90C2A; test: labeled hypoxanthine susceptibility assay, P. falciparum TM90C2A; format: cell-based, Plasmodium falciparum
Procedure: as §1

[3] = tested on: rodent macrophage (RAW) cell line; test: cells; details: Mus musculus, Macrophage, read-out: Macrophage IC50
Procedure: (§2) General cytotoxicity was assessed by first determining LC50 's against a rodent macrophage (RAW) cell line using the 3-(4,5-dimethylthiazole-2-yl)-2,5-diphenyltetrazolium bromide (MTT) assay as described in one of our earlier studies. This screen was conducted to identify compounds that may require de-selection due to generalized toxicity. […] In vitro neurocytotoxicity was assessed by determining LC50s against primary mouse neurons using the MTT assay as described previously. Inhibition of the A2A and A1 receptors was determined at 200 nM in duplicate by Caliper Biosciences (Hanover, Maryland).

in vitro [4] = details: mouse
Procedure: as §2

[5] = metabolic stability in mouse liver microsomes; format: in vitro ADME; details: for half-life at 1 μM: pH 7.4, mouse liver microsomes, read-out: Half-life in mouse micro; for HL in Microsomes: Figure 3, species of microsomes not given
Procedure: (§3) Interesting compounds were also submitted for drug-drug interaction and metabolic stability assays. Low IC50s against specific cytochrome P450 isoforms may indicate the potential for a harmful drug interaction to occur in vivo with substrates of that isoform. A lack of metabolic stability in vitro may indicate potential metabolic instability in vivo, and, therefore, a shorter half-life. Drug interaction potential was evaluated in vitro using BD Gentest (Franklin Lakes, NJ) CYP450 inhibition kits as recommended by the manufacturer. Metabolic stability assessments were conducted using in vitro liver microsomes. […] The reaction is started with the addition of 1 U/mL glucose-6-phosphate dehydrogenase G6PD. The mixture is incubated on a shaking platform at 37°C, and aliquots are taken and quenched with the addition of an equal volume of cold acetonitrile at 0, 10, 20, 30, and 60 min. Samples are centrifuged at 3700 rpm for […] at 20°C to remove debris. Sample quantification is carried out by LC/MS, and metabolic half-life is calculated by log plots of the total ion chromatograph area remaining.

CYP450 1A2 = target: T1, CYP450 1A2 (Homo sapiens, UniProt P05177); test: CYP450 inhibition kit (drug-drug interaction), 1A2; format: biochemical
T1 construct: purchased BD Gentest (Franklin Lakes, NJ)
T1 sequence (P05177 1-516): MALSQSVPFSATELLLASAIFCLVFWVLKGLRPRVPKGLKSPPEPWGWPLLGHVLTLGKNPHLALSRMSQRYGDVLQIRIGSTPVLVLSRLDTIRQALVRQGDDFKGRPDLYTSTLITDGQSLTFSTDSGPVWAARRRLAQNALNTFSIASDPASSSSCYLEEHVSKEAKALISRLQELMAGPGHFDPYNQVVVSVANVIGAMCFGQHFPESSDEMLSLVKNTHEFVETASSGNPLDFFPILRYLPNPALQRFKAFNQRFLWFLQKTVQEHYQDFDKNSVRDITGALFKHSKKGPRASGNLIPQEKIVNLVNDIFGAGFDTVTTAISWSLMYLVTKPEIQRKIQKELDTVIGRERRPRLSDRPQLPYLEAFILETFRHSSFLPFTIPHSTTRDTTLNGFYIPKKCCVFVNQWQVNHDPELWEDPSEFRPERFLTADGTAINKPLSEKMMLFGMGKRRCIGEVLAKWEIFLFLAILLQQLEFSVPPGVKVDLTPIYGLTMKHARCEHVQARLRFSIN
Procedure: as §3, with “Low” for “Interesting compounds were also submitted for drug-drug interaction and metabolic stability assays. Low”

CYP450 2C9 = target: T2, CYP450 2C9 (Homo sapiens, UniProt P11712); test: CYP450 inhibition kit (drug-drug interaction), 2C9; format: biochemical
T2 construct: purchased BD Gentest (Franklin Lakes, NJ)
T2 sequence (P11712 whole entry): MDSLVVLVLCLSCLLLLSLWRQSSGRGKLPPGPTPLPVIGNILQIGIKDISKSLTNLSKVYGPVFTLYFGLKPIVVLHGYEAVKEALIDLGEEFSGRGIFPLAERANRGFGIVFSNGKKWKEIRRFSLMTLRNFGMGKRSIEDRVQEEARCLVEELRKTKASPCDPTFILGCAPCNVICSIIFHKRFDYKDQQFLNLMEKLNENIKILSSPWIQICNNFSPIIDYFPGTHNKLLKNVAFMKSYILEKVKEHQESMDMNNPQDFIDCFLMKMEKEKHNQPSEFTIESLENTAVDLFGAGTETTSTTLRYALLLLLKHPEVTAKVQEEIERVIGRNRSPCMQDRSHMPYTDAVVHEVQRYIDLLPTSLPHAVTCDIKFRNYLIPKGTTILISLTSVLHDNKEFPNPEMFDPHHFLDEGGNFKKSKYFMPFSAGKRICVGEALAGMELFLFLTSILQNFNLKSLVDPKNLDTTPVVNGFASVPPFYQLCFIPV
Procedure: as §3, with “Low” for “Interesting compounds were also submitted for drug-drug interaction and metabolic stability assays. Low”

CYP450 2C19 = target: T3, CYP450 2C19 (Homo sapiens, UniProt P33261); test: CYP450 inhibition kit (drug-drug interaction), 2C19; format: biochemical
T3 construct: purchased BD Gentest (Franklin Lakes, NJ)
T3 sequence (P33261 whole entry): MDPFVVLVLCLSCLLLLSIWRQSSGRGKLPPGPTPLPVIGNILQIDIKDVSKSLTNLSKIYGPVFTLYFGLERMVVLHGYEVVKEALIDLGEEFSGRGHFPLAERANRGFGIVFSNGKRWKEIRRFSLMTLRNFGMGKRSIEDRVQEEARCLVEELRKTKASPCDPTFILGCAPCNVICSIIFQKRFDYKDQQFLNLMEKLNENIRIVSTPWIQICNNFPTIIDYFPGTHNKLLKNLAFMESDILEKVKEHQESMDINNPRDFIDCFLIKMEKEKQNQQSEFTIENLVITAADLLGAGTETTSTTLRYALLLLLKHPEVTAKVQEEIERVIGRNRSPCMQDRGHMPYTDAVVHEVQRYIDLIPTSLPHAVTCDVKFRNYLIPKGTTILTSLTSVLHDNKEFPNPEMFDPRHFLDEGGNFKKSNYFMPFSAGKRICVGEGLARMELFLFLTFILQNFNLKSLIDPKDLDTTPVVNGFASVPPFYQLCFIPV
Procedure: as §3, with “Low” for “Interesting compounds were also submitted for drug-drug interaction and metabolic stability assays. Low”

CYP450 2D6 = target: T4, CYP450 2D6 (Homo sapiens, UniProt P10635); test: CYP450 inhibition kit (drug-drug interaction), 2D6; format: biochemical
T4 construct: purchased BD Gentest (Franklin Lakes, NJ)
T4 sequence (P10635 whole entry): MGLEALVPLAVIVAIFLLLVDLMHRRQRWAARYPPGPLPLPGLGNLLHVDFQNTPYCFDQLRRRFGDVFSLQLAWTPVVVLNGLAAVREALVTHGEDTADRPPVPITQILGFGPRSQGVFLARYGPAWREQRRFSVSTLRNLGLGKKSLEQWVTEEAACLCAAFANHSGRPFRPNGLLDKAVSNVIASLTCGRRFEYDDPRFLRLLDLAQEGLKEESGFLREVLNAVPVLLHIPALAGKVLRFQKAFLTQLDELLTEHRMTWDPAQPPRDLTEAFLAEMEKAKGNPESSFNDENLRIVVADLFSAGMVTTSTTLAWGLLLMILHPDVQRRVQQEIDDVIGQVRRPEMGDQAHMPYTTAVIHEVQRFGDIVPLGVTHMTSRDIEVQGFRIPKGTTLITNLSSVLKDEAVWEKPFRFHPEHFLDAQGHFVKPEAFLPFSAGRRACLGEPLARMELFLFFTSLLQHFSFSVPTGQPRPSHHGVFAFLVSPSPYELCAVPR
Procedure: as §3, with “Low” for “Interesting compounds were also submitted for drug-drug interaction and metabolic stability assays. Low”

CYP450 3A4 = target: T5, CYP450 3A4 (Homo sapiens, UniProt P08684); test: CYP450 inhibition kit (drug-drug interaction), 3A4; format: biochemical
T5 construct: purchased BD Gentest (Franklin Lakes, NJ)
T5 sequence (P08684 whole entry): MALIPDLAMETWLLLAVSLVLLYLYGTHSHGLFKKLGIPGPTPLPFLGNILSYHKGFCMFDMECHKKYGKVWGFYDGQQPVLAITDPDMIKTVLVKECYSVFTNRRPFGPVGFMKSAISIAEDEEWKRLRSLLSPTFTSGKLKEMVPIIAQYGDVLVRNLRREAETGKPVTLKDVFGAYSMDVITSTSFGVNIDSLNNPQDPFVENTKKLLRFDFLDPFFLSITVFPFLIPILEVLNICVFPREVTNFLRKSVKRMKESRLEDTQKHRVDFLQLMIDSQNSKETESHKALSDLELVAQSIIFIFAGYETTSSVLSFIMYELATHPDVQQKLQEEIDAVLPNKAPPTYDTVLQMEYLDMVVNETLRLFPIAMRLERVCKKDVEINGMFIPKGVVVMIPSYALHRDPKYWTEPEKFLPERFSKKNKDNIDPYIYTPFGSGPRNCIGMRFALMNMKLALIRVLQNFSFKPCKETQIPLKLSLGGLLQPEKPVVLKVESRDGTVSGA
Procedure: as §3, with “Low” for “Interesting compounds were also submitted for drug-drug interaction and metabolic stability assays. Low”

in vitro [6] = details: mouse; remark: listed apart in the source
Procedure: as §2

in vitro [7] = details: dog, MDCK-MDR1, pH 7.4
Procedure: (§4) For this reason, the apparent permeability of selected compounds across MDR1-transfected MDCK cell monolayers was determined. This assay is an in vitro surrogate of the blood-brain barrier.
(§5) Permeability was determined by Absorption Systems (Exton, PA). MDR1-MDCK cell monolayers were grown to confluence on collagen-coated, microporous, polycarbonate membranes in 12-well Costar Transwell plates. […] The permeability assay buffer was Hanks Balanced Salt Solution containing 10 mM HEPES and 15 mM glucose at a pH of 7.4. A known p-glycoprotein inhibitor cyclosporin A (CSA) was also added to the assay buffer at 10 μM. Bovine serum albumin (1%) was added to the receiver well. The dosing solution concentrations of the test compounds were 5.0 μM in the assay buffer. All cell monolayers were first pre-incubated for 30 minutes with assay buffer. After 30 minutes, the buffer was removed, replaced with fresh buffer, and time was recorded as 0. […] Cell monolayers were dosed on the apical side (A-to-B) or basolateral side (B-to-A) and incubated at 37°C with 5% CO2 in a humidified incubator. After 2 hours, aliquots were taken from the receiver chambers. Samples were taken from the donor chamber at 0 and 2 hours. Each determination was performed in duplicate. The lucifer yellow flux was also measured for each monolayer to ensure no damage was inflicted to the cell monolayers during the flux period. All samples were assayed by LC/MS/MS using electrospray ionization.
(§6) Apparent permeability in the apical (A-B direction), PappA-B, and percent recovery are reported. Apparent permeability is a measure of the rate of transport across the cell monolayer. Percent recovery refers to the amount of compound recoverable at the end of the assay. Low recovery may indicate non-specific binding to assay plates, instability or accumulation in the cell pellet.
(§7) The apparent permeability, Papp, and percent recovery were calculated as follows:
(§8) Papp = (dCr/dt) × Vr/(A × C0) (1)
(§9) Percent Recovery = 100 × ((Vr × Cr^final) + (Vd × Cd^final))/(Vd × […]) (2)

[8] = tested on: MDR1-transfected MDCK cell monolayers; test: in vitro; details: dog, MDCK-MDR1, 2 h, 5 μM, pH 7.4
Procedure: as §4, §5, §6, §7, §8, §9

[9] = D6, read-out: IC90 Pf D6, P. falciparum D6, mefloquine: historical mean +/- SD (n)
[10] = D6, read-out: PF D6 IC90, P. falciparum D6
[11] = Plasmodium falciparum, TM90C2A, read-out: IC90 Pf C2A
[12] = Plasmodium falciparum, TM90C2A, read-out: PF C2A IC90
[13] = Plasmodium falciparum, TM90C2A; read-out: IC90 PfC2A
[14] = Plasmodium falciparum, TM90C2A, read-out: IC90 PfC2A
[15] = Plasmodium falciparum, TM90C2A, read-out: Pf C2A IC90 nM values calculated using MW in Column C

Structure (SMILES)	IC90 (P. falciparum strain W2; W2, read-out: IC90 Pf W2) [µg/mL]	IC90 (P. falciparum strain W2; W2, read-out: PF W2 IC90) [µg/mL]	IC90 (P. falciparum strain D6; [9]) [µg/mL]	IC90 (P. falciparum strain D6; [10]) [µg/mL]	IC90 ([1]; read-out: IC90 Pf C235) [µg/mL]	IC90 ([1]; read-out: PF C235 IC90) [µg/mL]	IC90 [2, 11] [µg/mL]	IC90 [2, 12] [µg/mL]	IC90 [2, 13] [nM]	CSI (C2A/W2) ([2]; ratio of IC90 C2A to IC90 W2)	pIC50 [3]	CC50 (in vitro [4]) [µM]	half-life at 1 μM [5] [min]	pIC50 (CYP450 1A2)	pIC50 (CYP450 2C9)	pIC50 (CYP450 2C19)	pIC50 (CYP450 2D6)	pIC50 (CYP450 3A4)	Papp A→B at 2 h, 5 μM (in vitro [7]) [×10⁻⁶ cm/s]	% recovery (MDCK-MDR1 permeability assay) [8] [%]	also measured
CCC(CC)CNCC(O)c1cc(C(F)(F)F)nc2c(C(F)(F)F)cccc12 (centres unmarked) [WR308388]	0.0011 (≈ 0.00269 µM)	0.00112 (≈ 0.00274 µM)	0.0067 (≈ 0.0164 µM)	0.00671 (≈ 0.0164 µM)	0.011 (≈ 0.0269 µM)	0.0109 (≈ 0.0267 µM)	0.01	0.0102	23	9.1	4.80	56	16	5.92	4.89	5.47	6.10	4.48	–	–	–
OC(CNCC1CCCN1)c1cc(C(F)(F)F)nc2c(C(F)(F)F)cccc12 (centres unmarked) [WR308621]	0.046 (≈ 0.113 µM)	–	0.092 (≈ 0.226 µM)	–	0.1 (≈ 0.245 µM)	–	0.198	–	–	–	–	–	–	–	–	–	–	–	< 3.3	28	CC50 (in vitro [6]): 20.3 µg/mL (≈ 49.8 µM); HL in Microsomes [5]: > 60 min
CCCCNCC(O)c1cc(C(F)(F)F)nc2c(C(F)(F)F)cccc12 (racemic) [WR177000]	0.0017 (≈ 0.00447 µM)	–	0.0067 (≈ 0.0176 µM)	–	0.0089 (≈ 0.0234 µM)	–	0.0123	–	32	–	–	–	–	–	–	–	–	–	25.4	58	CC50 (in vitro [6]): 2.78 µg/mL (≈ 7.31 µM); HL in Microsomes [5]: 37 min
OC(CNCC12CCC(C1)NC2)c1cc(C(F)(F)F)nc2c(C(F)(F)F)cccc12 (centres unmarked) [WR319535/581]	0.275 (≈ 0.635 µM)	–	0.075 (≈ 0.173 µM)	–	0.26 (≈ 0.6 µM)	–	0.251	–	–	–	–	–	–	–	–	–	–	–	2	52	CC50 (in vitro [6]): 4.11 µg/mL (≈ 9.48 µM); HL in Microsomes [5]: > 60 min
OC(CNC1CCC1)c1cc(C(F)(F)F)nc2c(C(F)(F)F)cccc12 (centres unmarked) [WR308266]	0.0061 (≈ 0.0161 µM)	0.00609 (≈ 0.0161 µM)	0.025 (≈ 0.0661 µM)	0.0245 (≈ 0.0647 µM)	0.024 (≈ 0.0634 µM)	0.0243 (≈ 0.0643 µM)	0.052	0.0517	–	8.5	4.88	59	22	5.62	4.92	5.12	5.85	5.24	–	–	IC90 [2, 14]: 137 nM; IC90 [2, 15]: 137 nM
CC(C)CC(C)NCC(O)c1cc(C(F)(F)F)nc2c(C(F)(F)F)cccc12 (centres unmarked) [WR308413]	0.0011 (≈ 0.00269 µM)	0.001 (≈ 0.00245 µM)	0.012 (≈ 0.0294 µM)	0.0116 (≈ 0.0284 µM)	0.015 (≈ 0.0367 µM)	0.0147 (≈ 0.036 µM)	0.0075	0.00748	171	7.5	5.07	> 120	19	4.59	4.72	5.24	6.00	< 4.40	–	–	IC90 [2, 15]: 18 nM
CCC(C)CNCC(O)c1cc(C(F)(F)F)nc2c(C(F)(F)F)cccc12 (centres unmarked) [WR308387]	0.0012 (≈ 0.00304 µM)	0.00119 (≈ 0.00302 µM)	0.007 (≈ 0.0178 µM)	0.00695 (≈ 0.0176 µM)	0.012 (≈ 0.0304 µM)	0.0116 (≈ 0.0293 µM)	0.011	0.011	26	9.2	4.68	> 120	20	5.68	4.96	5.15	5.70	< 4.40	18	42	–
CC1C(NCC(O)c2cc(C(F)(F)F)nc3c(C(F)(F)F)cccc23)CC2CC1C2(C)C (centres unmarked) [WR308446]	< 0.001	< 0.00048	0.014 (≈ 0.0304 µM)	0.0143 (≈ 0.0311 µM)	0.019 (≈ 0.0413 µM)	0.0189 (≈ 0.041 µM)	0.016	0.0155	34	–	5.05	48	13	< 4.40	4.80	4.85	5.04	< 4.40	–	–	–
C=CCNCC(O)c1cc(C(F)(F)F)nc2c(C(F)(F)F)cccc12 (centres unmarked) [WR308255]	0.0038 (≈ 0.0104 µM)	0.00375 (≈ 0.0103 µM)	0.015 (≈ 0.0412 µM)	0.0145 (≈ 0.0398 µM)	0.019 (≈ 0.0522 µM)	0.0187 (≈ 0.0513 µM)	0.037	0.0368	–	9.8	4.23	> 120	25	5.82	4.60	4.60	5.54	4.74	–	–	IC90 [2, 14]: 101 nM; IC90 [2, 15]: 101 nM
